# Calls of active or inactive are those of the source. The rule behind the calls is not given here. Where a SMILES comes first, the peptide text is derived from it.
# Test system: rodent carcinogenicity bioassays, tumor incidence
# Experiment: CCRIS carcinogenicity studies
# Procedure, shortened: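 Archive of carcinogenicity, mutagenicity, tumor promotion and tumor inhibition results drawn from journals, NCI reports and other sources, expert-reviewed; covers 1985-2011 and is no longer updated.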
smiles,measurement,setting,value
CNC(=O)Oc1cccc(N=CN(C)C)c1,carcinogen call,"Species: Mouse, Strain/Sex: Crl:CD-1(ICR) BR/Female (50/Group), Route: Oral, Dose: 0, 10, 50, 500 ppm of 95.7% formetanate HCl in diet for 104 wk, study duration 104 wk, Dose: 0, 10, 50, 500 ppm of 95.7% formetanate HCl in diet for 104 wk, study duration 104 wk",inactive; negative
same,carcinogen call,"Species: Mouse, Strain/Sex: Crl:CD-1(ICR) BR/Male (50/Group), Route: Oral, Dose: 0, 10, 50, 500 ppm of 95.7% formetanate HCl in diet for 104 wk, study duration 104 wk, Dose: 0, 10, 50, 500 ppm of 95.7% formetanate HCl in diet for 104 wk, study duration 104 wk",inactive; negative
same,carcinogen call,"Species: Rat, Strain/Sex: Crl:COBS CD(SD)BR/Female (50/Group), Route: Oral, Dose: 0, 10, 50, 250 ppm of 95.1-96% formetanate HCl in diet for 104 wk, study duration 104 wk, Dose: 0, 10, 50, 250 ppm of 95.1-96% formetanate HCl in diet for 104 wk, study duration 104 wk",inactive; negative
same,carcinogen call,"Species: Rat, Strain/Sex: Crl:COBS CD(SD)BR/Male (50/Group), Route: Oral, Dose: 0, 10, 50, 250 ppm of 95.1-96% formetanate HCl in diet for 104 wk, study duration 104 wk, Dose: 0, 10, 50, 250 ppm of 95.1-96% formetanate HCl in diet for 104 wk, study duration 104 wk",inactive; negative
COc1ccc(O)cc1,carcinogen call,"Species: RAT, Strain/Sex: F344/FEMALE, Route: ORAL, Dose: 0, 2% IN DIET FOR 104 WK (STUDY DURATION: 104 WK), Tumor Site: Type of Lesion: FORESTOMACH: PAPILLOMA, SQUAMOUS CELL CARCINOMA",active; positive
same,carcinogen call,"Species: RAT, Strain/Sex: F344/MALE, Route: ORAL, Dose: 0, 0.4% IN DIET FOR DURATION OF STUDY (STUDY DURATION: 104 WK)",inactive; negative
same,carcinogen call,"Species: RAT, Strain/Sex: F344/MALE, Route: ORAL, Dose: 0, 2% IN DIET FOR 104 WK (STUDY DURATION: 104 WK), Tumor Site: Type of Lesion: FORESTOMACH: PAPILLOMA, SQUAMOUS CELL CARCINOMA",active; positive
Cc1cc2c(c3ccc4ccccc4c13)C=C[C@@H](O)[C@@H]2O,carcinogen call,"Species: MOUSE, Strain/Sex: ICR/FEMALE, Route: INTRAPERITONEAL, Dose: 8 NMOL/5 µL DMSO ON DAY 1, 16 NMOL/10 µL ON DAY 8, AND 32 NMOL/20 µL ON DAY 15 OF AGE (STUDY DURATION: 35 WK), Tumor Site: Type of Lesion: LUNG: TUMORS, LIVER: TUMORS",active; positive
same,carcinogen call,"Species: MOUSE, Strain/Sex: ICR/MALE, Route: INTRAPERITONEAL, Dose: 8 NMOL/5 µL DMSO ON DAY 1, 16 NMOL/10 µL ON DAY 8, AND 32 NMOL/20 µL ON DAY 15 OF AGE (STUDY DURATION: 35 WK), Tumor Site: Type of Lesion: LUNG: TUMORS",active; positive
C[C@H]1C[C@]2(C)[C@@H](O)CC[C@H]2[C@@H]2CCc3cc(O)ccc3[C@H]21,carcinogen call,"Species: HAMSTER, Strain/Sex: SYRIAN/MALE, Route: SUBCUTANEOUS IMPLANT, Dose: 0, 20 MG IN PELLETS IMPLANTED EVERY 2.5 MO FOR 9 MO (STUDY DURATION: 9 MO)",inactive; negative
Nc1cc(Cl)c(N)c(Cl)c1,carcinogen call,"Species: MOUSE, Strain/Sex: B6C3F1/FEMALE, Route: ORAL, Dose: 0, 1000, 3000 PPM IN DIET, Dose: 0, 1000, 3000 PPM IN DIET, Tumor Site: Type of Lesion: LIVER: HEPATOCELLULAR ADENOMA OR CARCINOMA",active; positive
same,carcinogen call,"Species: MOUSE, Strain/Sex: B6C3F1/MALE, Route: ORAL, Dose: 0, 1000, 3000 PPM IN DIET, Dose: 0, 1000, 3000 PPM IN DIET, Tumor Site: Type of Lesion: LIVER: HEPATOCELLULAR ADENOMA OR CARCINOMA",active; positive
same,carcinogen call,"Species: RAT, Strain/Sex: F344/FEMALE, Route: ORAL, Dose: 0, 2000, 6000 PPM IN DIET, Dose: 0, 2000, 6000 PPM IN DIET",inactive; negative
same,carcinogen call,"Species: RAT, Strain/Sex: F344/MALE, Route: ORAL, Dose: 0, 1000, 2000 PPM IN DIET, Dose: 0, 1000, 2000 PPM IN DIET",inactive; negative
COC(=O)[C@H](Cc1ccccc1)NC(=O)[C@@H](N)CC(=O)O (H-Asp-Phe-OMe),carcinogen call,"Species: MOUSE, Strain/Sex: SWISS/FEMALE, Route: INTRAVESICULAR, Dose: 0, 4-4.4 MG IN CHOLESTEROL PELLET (STUDY DURATION: 26 WK)",inactive; negative
same,carcinogen call,"Species: MOUSE, Strain/Sex: SWISS/FEMALE, Route: INTRAVESICULAR, Dose: 0, 4-4.4 MG IN CHOLESTEROL PELLET (STUDY DURATION: 56 WK)",inactive; negative
CCCCCCCCCc1ccc(OCCO)cc1,carcinogen call,"Species: MOUSE, Strain/Sex: B6C3F1/FEMALE, Route: ORAL, Dose: 0, 500, 1500, 4500 PPM IN DIET FOR 104 WK (STUDY DURATION: 104 WK), Dose: 0, 500, 1500, 4500 PPM IN DIET FOR 104 WK (STUDY DURATION: 104 WK)",inactive; negative
same,carcinogen call,"Species: RAT, Strain/Sex: F344/FEMALE, Route: ORAL, Dose: 0, 1000, 3000, 9000 PPM IN DIET FOR 104 WK (STUDY DURATION: 104 WK), Dose: 0, 1000, 3000, 9000 PPM IN DIET FOR 104 WK (STUDY DURATION: 104 WK)",inactive; negative

# Reference: PubChem BioAssay AID1259411 (Chemical Carcinogenesis Research Information System (CCRIS), 2018)
